≈ marks a conversion by molar mass, not a printed value. Where “and” joins values, the source holds several entries; their conditions need not be identical. Equal entries are not always repeated. Numbered stars: 1 amine (or outer) side, 2 acyl side, 3 side chain; on linkers, the order of the positions; unused ones are H or OH. Bridge positions count the residues as written; N and C are the ends. Square brackets hold non-standard residues; d marks the D form. Peptide text beside a SMILES is read from it. I, II: the chains in the order shown. Actinocin(9to1) = Cc1c2oc3c(C)ccc(C(=O)[*:1])c3nc-2c(C(=O)[*:2])c(N)c1=O; NMeV = CN[C@H](C(=O)O)C(C)C; Sar = CNCC(=O)O
What was measured:
[1] = DPPH antioxidant assay; type: biochemical; conditions: for Antioxidant IC50 / IC50: DPPH; for Antioxidant IC50: 550 nm; for IC50: value in brackets; for Antioxidant Mg Vit C equivalents/g dry weight: IC50 vit C/IC50 sample × 1000
Protocol: Antioxidant activity of the ethanol extract of S. jambos and compounds was investigated using 1,2-diphenyl-1-picrylhydrazyl (DPPH) antioxidant assay. Following the procedures as described by DuToit et al. for each sample, a dilution series (8 dilutions) was prepared in a 96 well plate by adding distilled water as a dilution medium. Final concentration of the samples ranged from 100 to 0.7 μg/ml. Each concentration was tested in triplicate. Vitamin C was used as a positive control. […] The radical scavenging activity was measured in terms of the amount of antioxidants necessary to decrease the initial DPPH absorbance by 50% (IC50). The IC50 value of each sample was determined graphically by plotting the absorbance of DPPH as a function of the sample concentration in μg/ml. The IC50 is the amount of antioxidant necessary to decrease the initial DPPH absorbance by 50%. The results are expressed as the mg vitamin C equivalents/g dry weight and calculated as follows: […]

[2] = system: TNF α; test: TNF α release from U937 cells stimulated with heat-killed P. acnes (ELISA); type: cell-based, human; conditions: for Suppression of TNF α release (range stated jointly for IL 8 and TNF α): abstract summary; for Inhibitory ratio (%) TNF α: 18 h
Protocol: (§1) Briefly, the log phase culture of P. acnes was harvested, washed three times with phosphate buffer saline (PBS), and incubated at 80°C for 30 min to kill the bacteria. The heat-killed bacteria were stored at 4°C until use. […] Pentoxifylline was used as a control. […] Cytokine standards were serially diluted to facilitate the construction of calibration curves necessary for determining protein concentration after treatment with test samples. The ratio (%) of inhibition of the cytokine release was calculated using the following equation: […] Where T represents the concentration of the cytokine in the culture supernatant with the test sample, and C represents the concentration of cytokine in the culture supernatant with the solvent.

[3] = system: Propionibacterium acnes (ATCC 11827); test: Antibacterial activity, broth microdilution MIC (INT colour change); type: cell-based; conditions: P. acnes, 72 h anaerobic; for MIC: Cutibacterium acnes, ATCC11827, 72 h
Protocol: The ethanol extract and compounds were tested against P. acnes by determining the minimum inhibitory concentration (MIC) values obtained by a microdilution method as previously described with few modifications. Briefly, the bacteria was cultured from a Kwik-Stick on nutrient agar and incubated at 37°C for 72 h under anaerobic conditions before the assay. The 72 h culture of the bacteria was dissolved in nutrient broth and the suspension was adjusted to 0.5 McFarland standard turbidity. […] In a sterile 96-well plate, 100 μl of samples from the stock solution consisting of the plant extract/isolated compounds (2 mg/ml in 10% dimethyl sulphoxide (DMSO)) and the positive control tetracycline (0.2 mg/ml) were diluted with broth. Twofold serial dilutions were made in broth over a range to give concentrations of 500–3.9 μg/ml and 50–0.3 and μg/ml for the plant extract/ isolated compounds and positive control tetracycline, respectively. The bacterial suspension (100 μl) was then added to the wells. The wells with 2.5% DMSO and bacterial suspension without samples served as the solvent and negative controls, respectively. The plates were incubated at 37°C for 72 h in an anaerobic environment.

[4] = In vitro cytotoxicity assay (XTT), B16-F10; conditions: mouse
Protocol: (§2) The mouse melanocytes (B16-F10) cells were cultured in a complete Minimum Essential Eagle’s Medium (MEM) whereas the human U937 cells were cultured in Roswell Park Memorial Institute (RPMI) containing 10% fetal bovine serum (FBS) and 1% gentamycin. B16-F10 (10^5 cells per well) and U937 (10^6 cells per well) were seeded into a 96-well plate. After an overnight incubation at 37°C in 5% CO2 and a humidified atmosphere, the extract, compounds and the positive control (actinomycin D) were added to the cells. […] The highest concentration of positive control (0.05 μg/ml) was serially diluted to eight consecutive wells. The plate was then incubated at 37°C in 5% CO2, and a humidified atmosphere after which the toxic effects of the extracts were assayed using the XTT (sodium 3’-[1-(phenyl amino-carbonyl)-3,4-tetrazolium]-bis-[4-methoxy-6-nitrobenzene sulfonic acid hydrate) cytotoxicity assay. […] The optical densities of the wells were measured at 450 nm (690 nm reference wavelength) using BIOTEK Power-wave XS multi well reader (A.D.P., Weltevreden Park, South Africa). By referring to the control (medium with DMSO), the cell survival rate was assessed.

[5] = In vitro cytotoxicity assay (XTT), U937; conditions: human
Protocol: as §2

[6] = system: P. acnes; parameters: method as in doi:10.1021/jf00030a036; conditions: cited from earlier work
[7] = system: IL 8; test: IL 8 release from U937 cells stimulated with heat-killed P. acnes (ELISA); type: cell-based, human; conditions: for Suppression of IL 8 release (range stated jointly for IL 8 and TNF α): abstract summary; for Inhibition of IL 8 in words: at the highest concentration tested; for Inhibitory ratio (%) IL 8: 18 h
Protocol: as §1

[8] = system: U937 human macrophage; test: In vitro cytotoxicity assay (XTT), U937; conditions: U937 cells
Protocol: as §2

[9] = system: vancomycin-resistant enterococci; parameters: method as in PMID 17541170; conditions: cited from earlier work
[10] = isolated from Anacardium occidentale; cited from earlier work
[11] = system: P. acnes; test: Transmission electron microscopy of treated P. acnes; type: cell-based, Propionibacterium acnes; conditions: 50 μg/ml, 72 h
Protocol: The TEM procedures followed the protocol of a previous publication. Briefly, bacteria was concentrated by centrifugation at 10 000 rpm for 1 min. The pellet was resuspended in nutrient broth to a final OD550 nm of 1. […] The bacterial suspension (5 ml) was mixed with plant extract and pure compound to a final concentration of 300 and 100 μg/ml for plant extract and 50 μg/ml for pure compound. Tetracycline (50 μg/ml) and DMSO (2.5%) were used as positive and solvent control, respectively. The pathogen was treated for 72 h; the control group consisted of only bacterial suspension in nutrient broth. Treated and untreated P. acnes cultures were centrifuged and fixed in 2.5% glutraldehyde in phosphate buffer at room temperature for 1 h. Samples were washed with phosphate buffer and postfixed in both 1% osmium tetraoxide and uranyl acetate. The cells were dehydrated in ethanol and embedded in quetol resin. Thin sections were prepared with a microtome and micrographs were taken using a JEOL JEM-2100 F field emission electron microscope.

[12] = at the highest concentration tested

O=C1O[C@H]([C@@H](O)CO)C(O)=C1O [vitamin C, reference compound]
Antioxidant IC50 [1]: 1.9 µg/mL
IC50 [1]: 11.3 µM

O=C(O)c1cc(O)c(O)c(O)c1 [Gallic acid, gallic acid]
Inhibition of TNF α in words [2, 12]: suppressed TNF α drastically
MIC ([3]; 37°C): > 500 µg/mL
Antibacterial MIC ([3]; 37°C): Na (not active at the highest concentration tested (500 μg/ml))
Antioxidant IC50 [1]: 0.8 µg/mL
IC50 [1]: 4.8 µM
Antioxidant Mg Vit C equivalents/g dry weight [1]: 2444.9 Mg Vit C equivalents/g dry weight
EC50 [4]: 2.2 µg/mL and 13.1 µM
EC50 [5]: 28.4 µg/mL and 169 µM

pentadecatrienyl salicylic acid
MIC [6]: 0.78 µg/mL

CC(C)=CCC/C(C)=C/CC/C(C)=C/CC/C=C(\C)CC/C=C(\C)CCC=C(C)C [Squalene, squalene]
MIC ([3]; 37°C): > 500 µg/mL
Antibacterial MIC ([3]; 37°C): Na (not active at the highest concentration tested (500 μg/ml))
Antioxidant IC50 [1]: >100 µg/mL
viability at 100 μg/ml ([4]; B16-F10 melanocyte cells): 100%
EC50 ([4]; B16-F10 mouse melanocyte cells): > 100000 ng/mL
EC50 [5]: > 100000 ng/mL
viability at 100 μg/ml [5]: 100%

C[C@H]1[C@H](C)CC[C@]2(C(=O)O)CC[C@]3(C)C(=CC[C@@H]4[C@@]5(C)CC[C@H](O)C(C)(C)[C@@H]5CC[C@]43C)[C@H]12 [Ursolic acid, ursolic acid]
Suppression of TNF α release (range stated jointly for IL 8 and TNF α) [2]: 74 - 99%
Inhibition of TNF α in words [2, 12]: significant inhibition
MIC ([3]; 37°C): > 500 µg/mL
Antibacterial MIC ([3]; 37°C): Na (not active at the highest concentration tested (500 μg/ml))
Suppression of IL 8 release (range stated jointly for IL 8 and TNF α) [7]: 74 - 99%
Inhibition of IL 8 in words [7]: significant inhibition
EC50 ([5]; U937 human macrophage cells): 38 µg/mL and 83.2 µM
Toxicity in words [8]: moderately toxic
MIC [9]: 4 µg/mL (≈ 8.76 µM)

CC(=O)CCCCn1c(=O)c2c(ncn2C)n(C)c1=O [Pentoxifylline, reference compound]
Inhibition of TNF α in words ([2]; at 100 and 50 μg/ml): Very high inhibition
Inhibitory ratio (%) TNF α ([2]; final concentration 10 μg/ml): 66.8%
Inhibitory ratio (%) TNF α ([2]; final concentration 50 μg/ml): 99.7%
Inhibitory ratio (%) TNF α ([2]; final concentration 100 μg/ml): 99.7%
Inhibitory ratio (%) IL 8 ([7]; final concentration 10 μg/ml): -0.16%
Inhibitory ratio (%) IL 8 ([7]; final concentration 50 μg/ml): -5.0%
Inhibitory ratio (%) IL 8 ([7]; final concentration 100 μg/ml): -1.3%
Change in IL 8 concentration in words ([7]; pentoxifylline control): no significant change

pentadecadienyl salicylic acid
MIC [6]: 0.78 µg/mL

CCCCCCCCCCCCCCCc1cccc(O)c1C(=O)O [pentadecyl salicylic acid]
MIC [6]: 0.78 µg/mL (≈ 2.24 µM)

6-pentadecenylsalicylic acid
DPPH radical scavenging activity in words [10]: did not exhibit notable DPPH radical scavenging activity

Cc1c2oc3c(C)ccc(C(=O)N[C@@H]4C(=O)N[C@H](C(C)C)C(=O)N5CCC[C@H]5C(=O)N(C)CC(=O)N(C)[C@@H](C(C)C)C(=O)O[C@@H]4C)c3nc-2c(C(=O)N[C@@H]2C(=O)N[C@H](C(C)C)C(=O)N3CCC[C@H]3C(=O)N(C)CC(=O)N(C)[C@@H](C(C)C)C(=O)O[C@@H]2C)c(N)c1=O [actinomycin D, reference compound] (I: T[dV]P[Sar][NMeV] / II: T[dV]P[Sar][NMeV]; ester I:1-I:C, II:1-II:C; linker I:N-II:N via Actinocin(9to1))
EC50 [4]: 4.5 ng/mL (≈ 0.00358 µM)
EC50 [5]: 4.5 ng/mL (≈ 0.00358 µM)

pentadecenyl salicylic acid
MIC [6]: 0.78 µg/mL

CN(C)[C@@H]1C(O)=C(C(N)=O)C(=O)[C@@]2(O)C(O)=C3C(=O)c4c(O)cccc4[C@@](C)(O)[C@H]3C[C@@H]12 [tetracycline, reference compound]
MIC ([3]; 37°C): 3.1 µg/mL
MIC ([3]; value in brackets): 7 µM
TEM: cell injury to P. acnes [11]: significant damages to the cells of P. acnes

myricitrin
Suppression of TNF α release (range stated jointly for IL 8 and TNF α) [2]: 74 - 99%
Inhibition of TNF α in words [2, 12]: significant inhibition
Inhibitory ratio (%) TNF α ([2]; final concentration 10 μg/ml): 32.8%
Inhibitory ratio (%) TNF α ([2]; final concentration 50 μg/ml): 99.7%
Inhibitory ratio (%) TNF α ([2]; final concentration 100 μg/ml): 99.7%
Antibacterial MIC ([3]; 37°C): Na (not active at the highest concentration tested (500 μg/ml))
Antibacterial MIC ([3]; 37°C, listed as myricitrin): > 500 µg/mL
Antioxidant IC50 [1]: 1.8 µg/mL
IC50 [1]: 4 µM
Antioxidant Mg Vit C equivalents/g dry weight [1]: 1081.0 Mg Vit C equivalents/g dry weight
Suppression of IL 8 release (range stated jointly for IL 8 and TNF α) [7]: 74 - 99%
Inhibition of IL 8 in words [7]: significant inhibition
Inhibitory ratio (%) IL 8 ([7]; final concentration 10 μg/ml): 40.6%
Inhibitory ratio (%) IL 8 ([7]; final concentration 50 μg/ml): 94.3%
Inhibitory ratio (%) IL 8 ([7]; final concentration 100 μg/ml): 99.6%

Source: paper PMC4228444 (BMC Complementary and Alternative Medicine, 2013)
